“Also recorded” adds a separate entry of the source. Where two headings read alike, the source gives them in different places.
Assays:
[1] = tested on: inositol phosphate levels in U251-MG cells; test: 3H-inositol metabolic labeling and HPLC of inositol phosphates; format: cell-based, human; settings: 10 μM, vs DMSO
Experimental: Human U251-MG glioblastoma cells (ECACC 09063001) were grown in DMEM supplemented with 10% FBS. The medium was changed to inositol-free DMEM, and cells were inositol-starved for 1–3 days. Cells were maintained in inositol-free DMEM medium, treated with the indicated inhibitor or DMSO for 1–2.5 h, and supplemented with 100 μCi ^3H-inositol (PerkinElmer) for 48 or 72 h, as indicated on each figure. Cells were then washed in PBS and lysed in 200 μL HCl (0.5 M), 250 μL of MeOH was added to each well of a 6-well plate (approximately 10^6 cells), followed by 125 μL of 2 M KCl. Lysates were scraped and sonicated on ice for three 1 min cycles. Inositol phosphate (IP) extracts were cleaned of lipids by adding 250 μL of CHCl3, vortexing and centrifuging samples for 2 min at 5000 rpm to separate upper aqueous and lower organic phases, upper phase contains soluble IPs. This extraction was repeated once. Samples were dried in a SpeedVac, resuspended in 10 mM ammonium phosphate (pH= 3.5), and filtered. HPLC separation and detection of the inositol species on the upper phase used a Partisphere SAX 4.6 mm × 250 mm column, eluted with 10 mM (buffer A) to 1.3 M (buffer B) ammonium phosphate (pH = 3.8) and online flow scintillation analyzer (FSA, PerkinElmer). Elution of [^32P]-labeled IP4, IP5, and IP6 standards confirmed the identity of each peak off the HPLC. Quantification represents three biologically independent metabolic labeling samples with error representing the standard deviation of the mean.

[2] = tested on: SF-1 target genes in HEK293 cells bearing tetracycline-inducible SF-1; test: RT-qPCR analysis of SF-1 target genes; format: cell-based, human; parameters: key to relative NR0B2 expression vs DMSO + TET control / relative StAR expression vs DMSO + TET control: ns = not significant; *p<0.05; ****p<0.0001; settings: for relative CYP11A1 expression vs DMSO + TET control / relative NR0B2 expression vs DMSO + TET control / relative StAR expression vs DMSO + TET control: 24 h, HEK293 Tet-inducible SF-1
[3] = target: T1, purified recombinant human IPMK kinase domain (Homo sapiens, UniProt Q8NFU5); test: IPMK IC50 determination, Kinase-Glo assay; format: biochemical
T1 sequence (Q8NFU5 with tags, fused parts or gaps): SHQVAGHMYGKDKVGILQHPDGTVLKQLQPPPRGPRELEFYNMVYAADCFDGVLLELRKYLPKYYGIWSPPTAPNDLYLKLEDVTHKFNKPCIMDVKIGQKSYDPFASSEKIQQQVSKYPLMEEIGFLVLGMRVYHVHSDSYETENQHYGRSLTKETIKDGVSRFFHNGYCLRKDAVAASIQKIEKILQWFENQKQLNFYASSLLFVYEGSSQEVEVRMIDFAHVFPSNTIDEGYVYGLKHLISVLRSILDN
Excerpt: (§1) These assay conditions were optimized with respect to reaction time, IPMK enzyme concentration, and IP3 concentration to determine the IC50 values for these ATP-competitive compounds.

[4] = tested on: purified recombinant human IPMK kinase domain; test: IPMK IC50 determination, Kinase-Glo assay; format: biochemical
Excerpt: as §1

[5] = Pharmacokinetic studies in mice; format: in vivo, male CD1 mice
Experimental: All the procedures related to animal handling, care, and treatment in this study were performed according to guidelines approved by the Institutional Animal Care and Use Committee (IACUC) of Pharmaron (PK-R-06012023 and PK-M-07182023), following the guidance of the Association for Assessment and Accreditation of Laboratory Animal Care (AAALAC). A group of 3 male CD1 mice (2 for exploratory PK) were dosed intravenously (IV) or intraperitoneally (IP) with a solution formulation of the tested compounds in 10% NMP, 5% Solutol in normal saline (v/v/v, 10:5:85). From each mouse, blood samples ([…]) were collected from the orbital vein such that samples were obtained at 0.083, 0.25, 0.5, 1, 2, 4, 8, and 24 h post dose. At each time point, blood samples were collected from three mice in labeled microcentrifuge tubes containing EDTA-K2 as an anticoagulant. Plasma samples were separated by centrifugation of whole blood and stored at −75 ± 15 °C until bioanalysis. All samples were processed for analysis by precipitation using acetonitrile (ACN) and analyzed with a fit-for-purpose LC/MS/MS method (the below quantifiable limit (BLOQ) was 5.0 ng/mL). Pharmacokinetic parameters were calculated by a noncompartmental analysis model using WinNonlin 8.3.

[6] = male, CD1, mouse, plasma, IV, dose 2.75 mg/kg

c1cc(-c2onc3ccc(-c4nnn[nH]4)cc23)cc(C2CCN(C3CCC3)CC2)c1 [Compound 14, 3-(3-(1-Cyclobutylpiperidin-4-yl)phenyl)-5-(1H-tetrazol-5-yl)benzo[c]isoxazole]
decrease of InsP5 levels ([1]; 48 h): 50%
increase of InsP4 levels ([1]; 48 h): about 50%
level of InsP6 ([1]; 48 h): no change
IP6 levels ([1]; 72 h): did not change; also recorded: does not decrease
InsP4 levels ([1]; 72 h): rose slightly
InsP7 levels ([1]; 72 h): did not change; also recorded: does not decrease
relative CYP11A1 expression vs DMSO + TET control ([2]; 10 μM): * (*p<0.05)
relative NR0B2 expression vs DMSO + TET control ([2]; 10 μM): ns
relative StAR expression vs DMSO + TET control ([2]; 10 μM): ns
relative CYP11A1 expression vs DMSO + TET control ([2]; 30 μM): * (*p<0.05)
relative NR0B2 expression vs DMSO + TET control ([2]; 30 μM): * (*p<0.05)
relative StAR expression vs DMSO + TET control ([2]; 30 μM): * (*p<0.05)
relative CYP11A1 expression vs DMSO + TET control ([2]; 50 μM): **** (****p<0.0001)
relative NR0B2 expression vs DMSO + TET control ([2]; 50 μM): **** (****p<0.0001)
relative StAR expression vs DMSO + TET control ([2]; 50 μM): **** (****p<0.0001)
regulation of nuclear receptor SF-1 target genes ([2]; HEK293 cells with Tet-inducible SF-1, 24 h): can regulate these target genes; also recorded: able to regulate nuclear receptor SF-1 target genes; also recorded: did detect changes
IC50 ([3]; Kinase-Glo assay, 12.5 μM Ins(1,4,5)P3, 10 μM ATP, read-out: IC50 toward recombinant human IPMK): 32 ± 2.4 nM
IC50 ([3]; supplementary csv, read-out: IPMK IC50): 31.6 ± 2.4 nM
concentration of maximum IPMK inhibition [4]: 100 nM
Vss (L/kg) ([5]; IV, dose 2.75 mg/kg): increased
AUC(0-t) ([5]; male, CD1, mouse, plasma, 10 mg/kg via IV and IP administration (route of this value not stated), n = 3): 8.26 µM·h
AUC(0-t) [5, 6]: 4.6 µM·h
Cmax [5, 6]: 28.3 µM
clearance [5, 6]: 22.8 mL/min/kg
half-life [5, 6]: 1.95 h
Vd ([5]; male, CD1, mouse, plasma, IV, dose 2.75 mg/kg, read-out: Vss): 0.39 L/kg
bioavailability ([5]; male, CD1, mouse, plasma, intraperitoneal, 10 mg/kg, IP vs IV, n = 3): 82%
